Measured values published in patent US5506264A, “Zinc tranexamate compounds” (Zaidan Hojin Seisan Kaihatsu Kaguki Kenkyusho, priority 1992, dated 1996).
Structures can show the parent of a compound that is named as a salt.

Assays:
[1] = tested on: Stomach injury with hydrochloric acid/ethanol; assay: Anti-ulcer test (1): stomach injury with hydrochloric acid/ethanol; format: in vivo, Male rats of Sprague-Dawley strain; settings: for Suppression % / Ulcer coefficient (mm) mean ± S.E.: 50 mg/kg oral, 1 hour before hydrochloric acid/ethanol, 8 animals, * p<0.05; for Ulcer coefficient (mm) mean ± S.E.: non-treated 78.4 ± 21.1
Experimental: Male rats of Sprague-Dawley strain (supplied by Charles-River Co., SPE) weighing 220 to 280 g were fasted for 24 hours and employed in the experiment, whereby the rats were allowed free access to water for the first 22 hours, with no water being given for the remaining 2 hours. The test compound was suspended in 0.5% aqueous carboxymethylcellulose solution and the suspension was given to the test animals at a dose of 1 ml/200 g body weight, with the solvent alone being applied as a control at the same dose. Rats were treated by oral administration of hydrochloric acid/ethanol (containing 0.15 mole hydrochloric acid solution in 80% ethanol) at a dose of 1 ml/200 g body weight and sacrificed with ether 1 hour later, and the stomachs and duodena were isolated, followed by removal of the contents from the duodena. After the cardiac orifices were ligated, 2% formalin solution was injected in 8 ml portion into the stomachs through the duodenum, and the pyloric sphincters were ligated, followed by immersion into the same solution for 10 min to perform slight fixation (hereinafter referred to as "formalin treatment"). The stomachs were incised along the greater curvature, and individual injuries (erosions) generated in the glandular portion of each stomach were measured in length (mm) under microscope for anatomy (10 fold magnification), with the total sum per rat of measured injury lengths being calculated. The test compound was given to the animals orally 1 hour before administration of hydrochloric acid/ethanol.

[2] = tested on: Stomach injury through water-immersion constraint stress; assay: Anti-ulcer test (2): stomach injury through water-immersion constraint stress; format: in vivo, Male rats of Sprague-Dawley strain; settings: 50 mg/kg oral, immediately before stress-loading (23° C., 8 hours), 8 animals, * p<0.05; for Ulcer coefficient (mm) mean ± S.E.: non-treated 52.8 ± 9.8
Experimental: Male rats of Sprague-Dawley strain (supplied by Charles-River Co., SPE) weighing 220 to 280 g were fasted for 24 hours and employed in the experiment, whereby the rats were allowed free access to water for the first 22 hours, with no water being given for the remaining 2 hours. The test compound was suspended in 0.5% aqueous carboxymethylcellulose solution and the suspension was given to the test animals at a dose of 1 ml/200 g body weight, with the solvent alone being applied as a control at the same dose. The rats were stress-loaded by soaking the animals placed in a stress cage of Univ. of Tokyo type up to the xiphoid in a water tank at 23° C. and they were taken out of the tank 8 hours later and sacrificed with ether. The stomachs were isolated and treated with formalin, and individual injuries formed in the glandular portion of the stomach were measured in length (mm), with the total sum per rat of the measured injury lengths being calculated. The test compound was given to the test animals orally immediately before the stress-loading.

mice = assay: Acute toxicity test, oral; settings: 3 day observation
Source text: Male ddy strain mice (weighing 23 to 26 g) used in the experiment were divided into groups each consisting of 3 heads and treated by oral administration of the test compound suspended with powdered gum arabic, followed by observation for any abnormalities over a 3 day period to find the number of dead animals.

Solubility in water = format: physicochemical

Row | Molecule | Suppression % [1] [%] | Ulcer coefficient (mm) mean ± S.E. [1] [mm] | Suppression % [2] [%] | Ulcer coefficient (mm) mean ± S.E. [2] [mm] | suppressory activity in the anti-ulcer test, compared with control, tranexamic acid and cetraxate hydrochloride ([1]; summary in words of the anti-ulcer tests (Tables 1 and 2)) | Nd/No (No. of dead animals / total No. of experimental animals) (mice; 600 mg/kg oral) | Nd/No (No. of dead animals / total No. of experimental animals) (mice; 1,200 mg/kg oral) | mortality (mice; oral doses up to 1,200 mg/kg) | amount of compound dissolving in 2 ml of water (Solubility in water) [g] | effects in the anti-ulcer tests ([1]; conclusion in words from the test results)
1 | NC[C@H]1CC[C@H](C(=O)Oc2ccc(CCC(=O)O)cc2)CC1 [Cetraxate hydrochloride] | 40.9 | 46.3 ± 7.6 | 39.4 | 32.0 ± 8.4 | – | – | – | – | – | –
2 | zinc tranexamate monohydrate | 81.1 | 14.8 ± 4.5 | 57.8 | 22.3 ± 8.4 | improved suppressory activity as compared with the control, or tranexamic acid and cetraxate hydrochloride | 0/3 | 0/3 | did not cause any animal to die | – | –
3 | L-malic acid salt of zinc tranexamate monohydrate | – | – | – | – | – | – | – | – | 1 | –
4 | NC[C@H]1CC[C@H](C(=O)O)CC1 [Tranexamic acid, tranexamic acid] | 10.1 | 70.5 ± 20.1 | 11.9 | 46.5 ± 8.4 | – | – | – | – | – | did not produce any marked effects
